# Measured values: paper PMC11372264, “^61Cu-PSMA–Targeted PET for Prostate Cancer: From Radiotracer Development to First-in-Human Imaging” (Journal of Nuclear Medicine, 2024)
# What was measured:
# [1] = Lipophilicity: distribution coefficient in 1:1 1-octanol/phosphate-buffered saline at pH 7.4; type: physicochemical
# Procedure: The lipophilicity of [^61Cu]Cu-DOTAGA-PSMA-I&T and [^61Cu]Cu-NODAGA-PSMA-I&T was assessed by determining the distribution coefficient in a 1:1 mixture of 1-octanol–to–phosphate-buffered saline at pH 7.4, in comparison with all reference radiotracers. Inhibitory concentration of 50% (IC50) was assessed by competition binding on lymph node carcinoma of the prostate (LNCaP) using ((S)-1-carboxy-5-(4-(-^125I-iodo-benzamido)pentyl)carbamoyl)-L-glutamic acid as the reference radioligand. Cellular uptake and distribution were assessed in LNCaP cells at 5, 15, 30, 60, and 120 min after exposure to the radioligand at 37°C, either alone or in the presence of 10 µM 2-(phosphonomethyl)pentanedioic acid to distinguish between specific and nonspecific uptake.
# LNCaP xenografts = assay: Biodistribution in LNCaP xenografts; type: in vivo, mice
# Procedure: All animal experiments were conducted in accordance with Swiss animal welfare laws and regulations under license number 30515 granted by the Veterinary Office, Department of Health, Canton Basel-Stadt, Switzerland. Male athymic nude-Foxn1^nu/Foxn1^+ mice (Envigo), 4–6 wk old, were inoculated subcutaneously on the shoulder with 10^7 LNCaP cells, freshly suspended in a 1:1 ratio of sterile minimum essential medium with basal medium Eagle and Matrigel. The tumors were allowed to grow to a volume of approximately 200 mm^3.
# The biodistribution of [^61Cu]Cu-DOTAGA-PSMA-I&T and [^61Cu]Cu-NODAGA-PSMA-I&T (100 µL/200 pmol/2–3 MBq) was compared with that of [^68Ga]Ga-DOTAGA-PSMA-I&T, [^68Ga]Ga-NODAGA-PSMA-I&T, and [^68Ga]Ga-PSMA-11 (100 µL/200 pmol/3–5 MBq), as well as [^18F]PSMA-1007 (100 µL/70 pmol/15 MBq). This comparison was conducted at 1 h after injection for all radiotracers and at 4 h after injection for the ^61Cu-labeled tracers and [^18F]PSMA-1007. The specificity of the ^61Cu-labeled tracers was assessed at 1 h after injection by blocking studies with 2-(phosphonomethyl)pentanedioic acid (100 µL/1.3 µmol) being injected 3–5 min before the injection of the radiotracer.
# [2] = Stability of radiotracer at room temperature (radiochemical purity over time); type: physicochemical; details: good manufacturing practice grade for human use, 20 MBq/nmol
# Procedure: [^61Cu]Cu-DOTAGA-PSMA-I&T and [^61Cu]Cu-NODAGA-PSMA-I&T were synthesized with radiolabeling yield of more than 98% and radiochemical purity of more than 97% (radio–high-performance liquid chromatography analysis) at an apparent molar activity of 24 MBq/nmol. Thus, no purification was required after labeling. Although [^61Cu]Cu-DOTAGA-PSMA-I&T needed elevated temperature (95°C) and 15 min of reaction time, [^61Cu]Cu-NODAGA-PSMA-I&T was synthesized at room temperature within 5 min. After 4 h at room temperature, the radiochemical purity of [^61Cu]Cu-DOTAGA-PSMA-I&T dropped to approximately 90%, whereas it remained stable (∼97%) for [^61Cu]Cu-NODAGA-PSMA-I&T. All analytic data and quality control results are provided in Supplemental Figures 1 and 2 and in Supplemental Tables 1 and 2.
# With inexpensive ^natNi as the starting material, highly pure ^61Cu could be produced with radionuclidic purity exceeding 99.99% at 12 h after synthesis (details on the production will be published elsewhere). The preparation of [^61Cu]Cu-NODAGA-PSMA-I&T was performed in widely used buffers at room temperature within 5 min. […] High labeling yields and suitable molar activities for clinical use eliminate the need for any purification step after labeling. […]
# [3] = 1 h after injection, blocking with 2-(phosphonomethyl)pentanedioic acid 1.3 µmol
smiles,measurement,setting,value
"O=C([O-])CN1CCN(CC(=O)[O-])CCN(C(CCC(=O)N[C@H](Cc2ccc(O)c(I)c2)C(=O)N[C@H](Cc2ccccc2)C(=O)N[C@H](CCCCNC(=O)CCCCCCC(=O)NCCCC[C@H](NC(=O)N[C@@H](CCC(=O)O)C(=O)O)C(=O)O)C(=O)O)C(=O)O)CC1.[61Cu+2] (stereo partly drawn) [[^61Cu]Cu-NODAGA-PSMA-I&T, NODAGA-(l-y)fk(sub-KuE)]",logDpH7.4,[1],−2.95 ± 0.08
same,"Biodistribution, Adrenals",LNCaP xenografts; 1 h after injection,17.3 ± 3.26 %IA/g
same,"Biodistribution, Blood",LNCaP xenografts; 1 h after injection,0.28 ± 0.06 %IA/g
same,"Biodistribution, Femur",LNCaP xenografts; 1 h after injection,2.73 ± 0.91 %IA/g
same,"Biodistribution, Heart",LNCaP xenografts; 1 h after injection,0.45 ± 0.15 %IA/g
same,"Biodistribution, Intestine",LNCaP xenografts; 1 h after injection,2.11 ± 0.78 %IA/g
same,"Biodistribution, Kidneys",LNCaP xenografts; 1 h after injection,118 ± 13 %IA/g
same,"Biodistribution, Liver",LNCaP xenografts; 1 h after injection,1.02 ± 0.28 %IA/g
same,"Biodistribution, Lung",LNCaP xenografts; 1 h after injection,1.69 ± 0.45 %IA/g
same,"Biodistribution, Muscles",LNCaP xenografts; 1 h after injection,1.12 ± 0.32 %IA/g
same,"Biodistribution, Pancreas",LNCaP xenografts; 1 h after injection,0.97 ± 0.36 %IA/g
same,"Biodistribution, Salivary glands",LNCaP xenografts; 1 h after injection,2.01 ± 0.33 %IA/g
same,"Biodistribution, Spleen",LNCaP xenografts; 1 h after injection,6.04 ± 1.87 %IA/g
same,"Biodistribution, Stomach",LNCaP xenografts; 1 h after injection,1.13 ± 0.20 %IA/g
same,"Biodistribution, Tumor (tumor uptake)",LNCaP xenografts; 1 h after injection,14.0 ± 5.0 %IA/g
same,Tumor-to-Adrenals ratio,LNCaP xenografts; 1 h after injection,0.92 ± 0.20
same,Tumor-to-Blood ratio,LNCaP xenografts; 1 h after injection,55.8 ± 20.0
same,Tumor-to-Intestine ratio,LNCaP xenografts; 1 h after injection,7.87 ± 2.93
same,Tumor-to-Kidneys ratio,LNCaP xenografts; 1 h after injection,0.13 ± 0.03
same,Tumor-to-Liver ratio,LNCaP xenografts; 1 h after injection,14.9 ± 4.9
same,Tumor-to-Muscles ratio,LNCaP xenografts; 1 h after injection,13.6 ± 3.75
same,Tumor-to-Salivary glands ratio,LNCaP xenografts; 1 h after injection,7.83 ± 3.16
same,Tumor-to-Spleen ratio,LNCaP xenografts; 1 h after injection,2.86 ± 1.37
same,"Biodistribution, Adrenals",LNCaP xenografts; [3],0.95 ± 0.16 %IA/g
same,"Biodistribution, Blood",LNCaP xenografts; [3],0.19 ± 0.01 %IA/g
same,"Biodistribution, Femur",LNCaP xenografts; [3],0.39 ± 0.24 %IA/g
same,"Biodistribution, Heart",LNCaP xenografts; [3],0.33 ± 0.03 %IA/g
same,"Biodistribution, Intestine",LNCaP xenografts; [3],0.87 ± 0.10 %IA/g
same,"Biodistribution, Kidneys",LNCaP xenografts; [3],4.59 ± 0.35 %IA/g
same,"Biodistribution, Liver",LNCaP xenografts; [3],1.29 ± 0.21 %IA/g
same,"Biodistribution, Lung",LNCaP xenografts; [3],0.67 ± 0.06 %IA/g
same,"Biodistribution, Muscles",LNCaP xenografts; [3],0.32 ± 0.06 %IA/g
same,"Biodistribution, Pancreas",LNCaP xenografts; [3],0.28 ± 0.17 %IA/g
same,"Biodistribution, Salivary glands",LNCaP xenografts; [3],0.51 ± 0.20 %IA/g
same,"Biodistribution, Spleen",LNCaP xenografts; [3],0.33 ± 0.08 %IA/g
same,"Biodistribution, Stomach",LNCaP xenografts; [3],0.62 ± 0.04 %IA/g
same,"Biodistribution, Tumor",LNCaP xenografts; [3],0.68 ± 0.55 %IA/g
same,"Biodistribution, Adrenals",LNCaP xenografts; 4 h after injection,8.32 ± 2.87 %IA/g
same,"Biodistribution, Blood",LNCaP xenografts; 4 h after injection,0.10 ± 0.03 %IA/g
same,"Biodistribution, Femur",LNCaP xenografts; 4 h after injection,1.34 ± 0.48 %IA/g
same,"Biodistribution, Heart",LNCaP xenografts; 4 h after injection,0.22 ± 0.05 %IA/g
same,"Biodistribution, Intestine",LNCaP xenografts; 4 h after injection,1.06 ± 0.50 %IA/g
same,"Biodistribution, Kidneys",LNCaP xenografts; 4 h after injection,90.9 ± 10.1 %IA/g
same,"Biodistribution, Liver",LNCaP xenografts; 4 h after injection,0.72 ± 0.11 %IA/g
same,"Biodistribution, Lung",LNCaP xenografts; 4 h after injection,0.74 ± 0.19 %IA/g
same,"Biodistribution, Muscles",LNCaP xenografts; 4 h after injection,0.50 ± 0.22 %IA/g
same,"Biodistribution, Pancreas",LNCaP xenografts; 4 h after injection,0.45 ± 0.09 %IA/g
same,"Biodistribution, Salivary glands",LNCaP xenografts; 4 h after injection,0.52 ± 0.06 %IA/g
same,"Biodistribution, Spleen",LNCaP xenografts; 4 h after injection,1.28 ± 0.39 %IA/g
same,"Biodistribution, Stomach",LNCaP xenografts; 4 h after injection,0.66 ± 0.15 %IA/g
same,"Biodistribution, Tumor (tumor uptake)",LNCaP xenografts; 4 h after injection,10.7 ± 3.3 %IA/g
same,Tumor-to-Adrenals ratio,LNCaP xenografts; 4 h after injection,1.44 ± 0.65
same,Tumor-to-Blood ratio,LNCaP xenografts; 4 h after injection,109 ± 43
same,Tumor-to-Intestine ratio,LNCaP xenografts; 4 h after injection,12.5 ± 6.7
same,Tumor-to-Kidneys ratio,LNCaP xenografts; 4 h after injection,0.12 ± 0.03
same,Tumor-to-Liver ratio,LNCaP xenografts; 4 h after injection,15.4 ± 5.7
same,Tumor-to-Muscles ratio,LNCaP xenografts; 4 h after injection,25.4 ± 12.0
same,Tumor-to-Salivary glands ratio,LNCaP xenografts; 4 h after injection,19.5 ± 7.1
same,Tumor-to-Spleen ratio,LNCaP xenografts; 4 h after injection,9.16 ± 3.84
same,Time stable at room temperature,[2],up to 9 h
